Laboratory results taken from article PMC5159191 (Nature, 2016).

System: CCR2-T4L
Format: binding, human
Settings: [3H]-INCB-3344 homologous displacement

SMILES: CCO[C@H]1CN(C2CCC(O)(c3ccc4c(c3)OCO4)CC2)C[C@@H]1NC(=O)CNC(=O)c1cccc(C(F)(F)F)c1 (stereo partly shown) [INCB-3344]
- improvement of affinity towards CCR2-T4L compared to WT CCR2: approximately 2 fold
